One may read the stoichiometry N as the number of molecules, sites or subunits per partner or assembly.

Data on four molecules can be found in article PMC5979572, “Imine Deaminase Activity and Conformational Stability of UK114, the Mammalian Member of the Rid Protein Family Active in Amino Acid Metabolism” (International Journal of Molecular Sciences, 2018).

The target of one data set is T1, UK114 (Capra hircus, UniProt P80601).
T1 construct: gene RIDA; full length 137 residues, recombinant from E. coli (pET-15b), N-terminal His-tag cut by thrombin leaving GSH before Met1; homotrimer
T1 sequence (P80601 1-137): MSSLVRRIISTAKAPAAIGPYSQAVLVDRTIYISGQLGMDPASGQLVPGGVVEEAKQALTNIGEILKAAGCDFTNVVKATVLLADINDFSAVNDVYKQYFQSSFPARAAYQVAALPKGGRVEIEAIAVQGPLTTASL
Briefly: decrease of semicarbazone formation rate, […] nm, imino acid generated in situ. The data set is classed as biochemical. The note with it: 50 mM sodium pyrophosphate pH 8.7, 25 °C, 10 mM semicarbazide, catalase.

The target in data set [1] is T2, D-amino acid oxidase (DAAO) (Sus scrofa, UniProt P00371).
T2 construct: gene DAO; native, purified from pig kidneys
T2 sequence (P00371 whole entry): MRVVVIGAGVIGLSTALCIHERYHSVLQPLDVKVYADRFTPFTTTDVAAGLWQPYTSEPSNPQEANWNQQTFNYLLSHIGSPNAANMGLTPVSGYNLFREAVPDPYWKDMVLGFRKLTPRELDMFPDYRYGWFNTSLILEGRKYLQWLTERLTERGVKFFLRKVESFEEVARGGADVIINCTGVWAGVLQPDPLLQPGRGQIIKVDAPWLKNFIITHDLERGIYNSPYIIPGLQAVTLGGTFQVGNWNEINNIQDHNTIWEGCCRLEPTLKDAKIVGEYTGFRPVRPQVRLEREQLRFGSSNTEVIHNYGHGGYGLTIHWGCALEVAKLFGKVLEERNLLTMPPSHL
Briefly: H2O2 production (HRP / o-dianisidine) and semicarbazone formation. The data set is classed as biochemical. The note with it: 50 mM sodium pyrophosphate pH 8.7, 25 °C.

Data set [2] deals with the molecule itself. Description: SEC; analytical gel filtration on a calibrated Superdex 75 (10/30) column equilibrated with 0.9% NaCl; standards BSA dimer, BSA monomer, carbonic anhydrase, cytochrome c. A general note: Size exclusion chromatography separates by hydrodynamic size, large species first.

Turning to `CC(=N)C(=O)O` [2-iminopropionate], the “decrease of semicarbazone formation rate, 248 nm, imino acid generated in situ” value at UK114 (imino acid from 5 mM L-Ala + LAAO or D-Ala + DAAO) is “the highest specificity is indeed observed with 2-iminopyruvate (2-iminopropionate)”. For the molecule `CC(C)C[C@@H](N)C(=O)O` [D-Leu], the “H2O2 production (HRP / o-dianisidine) and semicarbazone formation” value in data set [1] is on record as “Semicarbazone formation was observed using D-Ala, D-Leu, but not D-Ser, D-Thr, or D-Lys”.

`CC(C)CC(=N)C(=O)O` [imino acid derived from Leu]: on UK114 (imino acid from 5 mM L-Leu + LAAO or D-Leu + DAAO), the “decrease of semicarbazone formation rate, 248 nm, imino acid generated in situ” value is recorded as “UK114 activity using the imino acid produced by DAAO from D-Leu was indistinguishable”.

B1: recombinant goat UK114 (Capra hircus), thrombin-cleaved (enzyme, Capra hircus (goat))
chain: GSHMSSLVRRIISTAKAPAAIGPYSQAVLVDRTIYISGQLGMDPASGQLVPGGVVEEAKQALTNIGEILKAAGCDFTNVVKATVLLADINDFSAVNDVYKQYFQSSFPARAAYQVAALPKGGRVEIEAIAVQGPLTTASL
notes: they precede the initiator methionine of UK114; also called RidA; not shown: His6, N-terminal, cleaved
In the case of B1, the “stoichiometry N” value in data set [2] was 3.
